# Assays:
# Experiment in all cases: relative viability (nuclei count vs DMSO), 5 days (fraction); higher = more cells survive
# Everolimus + Palbociclib = compound: CO[C@H]1C[C@@H]2CC[C@@H](C)[C@@](O)(O2)C(=O)C(=O)N2CCCC[C@H]2C(=O)O[C@H]([C@H](C)C[C@@H]2CC[C@@H](OCCO)[C@H](OC)C2)CC(=O)[C@H](C)/C=C(\C)[C@@H](O)[C@@H](OC)C(=O)[C@H](C)C[C@H](C)/C=C/C=C/C=C/1C [Everolimus] + CC(=O)c1c(C)c2cnc(Nc3ccc(N4CCNCC4)cn3)nc2n(C2CCCC2)c1=O [Palbociclib] (partner 0.5 µM)
# Procedure, shortened: (§1)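 Relative viability is defined as nuclei in treated wells over nuclei in vehicle wells. Duplicate plates were run and medians reported. Lung cancer cell lines in 1536-well plates were dosed by pin tool one day after seeding, with one drug or with a fixed anchor-drug dose plus five library-drug doses (not always all listed) in √10 steps, and nuclei were counted after 5 days.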
# Everolimus + Dasatinib = compound: CO[C@H]1C[C@@H]2CC[C@@H](C)[C@@](O)(O2)C(=O)C(=O)N2CCCC[C@H]2C(=O)O[C@H]([C@H](C)C[C@@H]2CC[C@@H](OCCO)[C@H](OC)C2)CC(=O)[C@H](C)/C=C(\C)[C@@H](O)[C@@H](OC)C(=O)[C@H](C)C[C@H](C)/C=C/C=C/C=C/1C [Everolimus] + Cc1nc(Nc2ncc(C(=O)Nc3c(C)cccc3Cl)s2)cc(N2CCN(CCO)CC2)n1 [Dasatinib] (partner 0.075 µM)
# Procedure, shortened: as §1
# Everolimus + Luminespib = compound: CO[C@H]1C[C@@H]2CC[C@@H](C)[C@@](O)(O2)C(=O)C(=O)N2CCCC[C@H]2C(=O)O[C@H]([C@H](C)C[C@@H]2CC[C@@H](OCCO)[C@H](OC)C2)CC(=O)[C@H](C)/C=C(\C)[C@@H](O)[C@@H](OC)C(=O)[C@H](C)C[C@H](C)/C=C/C=C/C=C/1C [Everolimus] + CCNC(=O)c1noc(-c2cc(C(C)C)c(O)cc2O)c1-c1ccc(CN2CCOCC2)cc1 [Luminespib] (partner 0.01 µM)
# Procedure, shortened: as §1
# Everolimus + Bortezomib = compound: CO[C@H]1C[C@@H]2CC[C@@H](C)[C@@](O)(O2)C(=O)C(=O)N2CCCC[C@H]2C(=O)O[C@H]([C@H](C)C[C@@H]2CC[C@@H](OCCO)[C@H](OC)C2)CC(=O)[C@H](C)/C=C(\C)[C@@H](O)[C@@H](OC)C(=O)[C@H](C)C[C@H](C)/C=C/C=C/C=C/1C [Everolimus] + CC(C)C[C@H](NC(=O)[C@H](Cc1ccccc1)NC(=O)c1cnccn1)B(O)O [Bortezomib] (partner 0.002 µM)
# Procedure, shortened: as §1
Cell Line,relative viability (Everolimus + Palbociclib; first compound 0.01 µM),relative viability (Everolimus + Palbociclib; first compound 0.03162 µM),relative viability (Everolimus + Palbociclib; first compound 0.1 µM),relative viability (Everolimus + Palbociclib; first compound 0.3162 µM),relative viability (Everolimus + Palbociclib; first compound 1 µM),relative viability (Everolimus + Dasatinib; first compound 0.01 µM),relative viability (Everolimus + Dasatinib; first compound 0.03162 µM),relative viability (Everolimus + Dasatinib; first compound 0.1 µM),relative viability (Everolimus + Dasatinib; first compound 0.3162 µM),relative viability (Everolimus + Dasatinib; first compound 1 µM),relative viability (Everolimus + Luminespib; first compound 0.01 µM),relative viability (Everolimus + Luminespib; first compound 0.03162 µM),relative viability (Everolimus + Luminespib; first compound 0.1 µM),relative viability (Everolimus + Luminespib; first compound 0.3162 µM),relative viability (Everolimus + Luminespib; first compound 1 µM),relative viability (Everolimus + Bortezomib; first compound 0.01 µM),relative viability (Everolimus + Bortezomib; first compound 0.03162 µM),relative viability (Everolimus + Bortezomib; first compound 0.1 µM),relative viability (Everolimus + Bortezomib; first compound 0.3162 µM),relative viability (Everolimus + Bortezomib; first compound 1 µM)
NCI-H1975,0.481,0.398,0.524,0.454,0.358,0.305,0.264,0.222,0.298,0.183,0.158,0.169,0.194,0.191,0.287,0.335,0.357,0.317,0.372,0.313
BEN,0.442,0.421,0.443,0.438,0.463,0.221,0.209,0.217,0.236,0.211,0.191,0.152,0.201,0.161,0.168,0.326,0.367,0.299,0.333,0.328
NCI-H23,0.261,0.272,0.317,0.232,0.252,0.406,0.371,0.386,0.391,0.484,0.211,0.2,0.21,0.232,0.218,0.497,0.471,0.334,0.565,0.555
NCI-H520,0.155,0.182,0.194,0.14,0.194,0.118,0.143,0.176,0.144,0.176,0.23,0.237,0.215,0.235,0.206,0.327,0.282,0.243,0.195,0.276
CAL-12T,0.461,0.236,0.152,0.217,0.388,0.274,0.261,0.194,0.289,0.189,0.146,0.138,0.173,0.159,0.212,0.662,0.732,0.557,0.597,0.713
EPLC-272H,0.307,0.323,0.284,0.286,0.259,0.235,0.266,0.213,0.227,0.276,0.162,0.176,0.188,0.203,0.263,0.573,0.589,0.517,0.638,0.558
LCLC-103H,0.511,0.49,0.465,0.453,0.546,0.404,0.305,0.35,0.319,0.322,0.839,0.819,0.689,0.741,0.733,1.06,1.01,1.02,1.07,0.749
NCI-H2405,0.336,0.351,0.332,0.381,0.358,0.207,0.211,0.183,0.182,0.209,0.657,0.548,0.523,0.52,0.484,0.783,1.07,0.783,0.726,0.744
HCC-15,0.73,0.79,0.627,0.697,0.76,0.667,0.546,0.417,0.561,0.489,0.45,0.449,0.368,0.387,0.191,1.01,1.09,0.968,1.06,1.07
PC-3 [JPC-3],0.579,0.497,0.548,–,0.545,0.93,0.77,0.797,0.669,0.675,0.466,0.517,0.493,0.372,0.474,0.703,0.798,0.846,0.774,0.889
HARA,0.242,0.189,0.218,0.241,0.169,0.199,0.244,–,0.209,0.289,0.748,0.768,–,0.407,0.203,1.07,1.14,0.904,1.11,1.01
NCI-H2126,0.384,0.314,0.325,0.338,0.345,0.422,0.423,0.35,0.467,0.373,0.532,0.457,0.42,0.564,0.381,0.736,0.668,0.66,0.714,0.738
LXF-289,0.583,0.542,0.504,0.504,0.476,0.291,0.199,0.151,0.197,0.178,0.59,0.512,0.582,0.641,0.66,0.976,1.01,0.987,1.03,1.01
NCI-H460,0.104,0.165,0.123,0.0825,0.0699,0.38,0.38,0.323,0.203,0.298,0.0198,0.0198,0.0232,0.0224,0.0194,0.827,0.982,0.672,0.881,1.08
NCI-H2009,0.105,0.109,0.103,0.127,0.108,0.214,0.218,0.225,0.244,0.215,0.832,0.866,0.77,0.852,0.72,0.739,0.863,0.484,0.864,0.812
